Experiments:
[1] = target: T1, OTUB1 (Homo sapiens, UniProt Q96FW1); assay: Gel-based ABPP: competition against IA-rhodamine labeling of OTUB1; assay type: binding; conditions: pre-incubated with OTUB1 30 min at 37° C.; IA-rhodamine 500 nM, 30 min room temperature; in-gel fluorescence; n=3
Experimental: Vehicle (DMSO) or an exemplary DUB Recruiter (Compound 100) were pre-incubated with OTUB1 for 30 min at 37° C. prior to IA-rhodamine labeling (500 nM, 30 min room temperature). OTUB1 was then separated by SDS/PAGE and in-gel fluorescence was assessed. Protein loading is illustrated by silver staining. The gel shown is representative gel of n=3 biologically independent samples/group.
Recombinant OTUB1 ([…]) was pre-treated with either DMSO vehicle or covalent ligand or bifunctional compounds at 37° C. for 30 min in 25 μL of PBS, and subsequently treated with of IA-Rhodamine (Setareh Biotech) at room temperature for 1 h. The reaction was stopped by addition of 4× reducing Laemmli SDS sample loading buffer (Alfa Aesar). After boiling at 95° C. for 5 min, the samples were separated on precast 4-20% Criterion TGX gels (Bio-Rad). Probe-labeled proteins were analyzed by in-gel fluorescence using a ChemiDoc MP (Bio-Rad).
A covalent ligand screen of cysteine-reactive libraries competed against IA-rhodamine labeling of a recombinant exemplary deubiquitinase OTUB1 was carried out to identify small molecule binders to OTUB1 by gel-based activity-based protein profiling (ABPP). […] OTUB1 was then separated by SDS/PAGE and in-gel fluorescence was assessed and quantified.
Target sequence in this assay (Q96FW1 whole entry): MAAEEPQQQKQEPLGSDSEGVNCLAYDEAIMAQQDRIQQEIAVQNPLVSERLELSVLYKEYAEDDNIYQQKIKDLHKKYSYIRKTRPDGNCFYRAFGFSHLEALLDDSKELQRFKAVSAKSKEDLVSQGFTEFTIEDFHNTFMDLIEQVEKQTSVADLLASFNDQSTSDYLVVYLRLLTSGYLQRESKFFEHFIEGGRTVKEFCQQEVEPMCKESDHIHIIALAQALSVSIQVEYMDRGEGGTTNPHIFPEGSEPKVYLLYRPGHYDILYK

[2] = target: T1, OTUB1; assay: LC-MS/MS analysis of tryptic peptides from OTUB1 covalently bound to DUB Recruiter; assay type: binding; conditions: tryptic peptides from OTUB1 covalently bound to compound
Target sequence in this assay (Q96FW1 whole entry): as above

[3] = target: T1, OTUB1; assay: In vitro reconstituted OTUB1 deubiquitination activity assay (monoubiquitin release from di-ubiquitin); assay type: biochemical; design: dose or concentration left out as unconfirmed; conditions: in the presence of UBE2D1; OTUB1 pre-incubated with Compound 100 for 1 hr; Western blotting
Experimental: These studies were performed in the presence of OTUB1-stimulating Ubiquitin-conjugating enzyme E2 D1 (UBE2D1), an E2 ubiquitin ligase that engages in a complex with OTUB1 to stimulate OTUB1 activity.
Previously described methods were used to assess DUB Recruiters effects on OTUB1 activity. Recombinant OTUB1 (500 nM) was pre-incubated with DMSO or Compound 100 […] for 1 hr. To initiate assay pre-treated OTUB1 enzyme was mixed 1:1 with di-Ub reaction mix for final concentrations of 250 nM OTUB1, 1.5 μM di-Ub, 12.5 μM UBE2D1 and 5 mM DTT. The appearance of mono-Ub was monitored by Western blotting over time by removing a portion of the reaction mix and adding Laemmli's buffer to terminate the reaction. Blot shown is a representative gel from n=3 biologically independent experiments/group.
Target sequence in this assay (Q96FW1 whole entry): as above
Target sequence in this assay (P51668 whole entry partner): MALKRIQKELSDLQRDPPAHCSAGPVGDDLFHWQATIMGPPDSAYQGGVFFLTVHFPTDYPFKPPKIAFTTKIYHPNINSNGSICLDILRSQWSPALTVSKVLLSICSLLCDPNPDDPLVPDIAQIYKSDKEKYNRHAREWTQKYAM

[4] = target: CFTR-OTUB1 complex (Homo sapiens, UniProt P13569+Q96FW1, DEL508-508); assay: Native mass spectrometry analysis of ternary complex formation; conditions: native MS; recombinant OTUB1 and DF508-harboring CFTR nucleotide-binding domain; 50 μM compound final
CFTR-OTUB1 complex, sequence (Q96FW1 whole entry, stated change not applied, the tested form may be a part): as the sequence (Q96FW1 whole entry) above
CFTR-OTUB1 complex, sequence (P13569 with tags, fused parts or gaps DEL508-508 limits assumed): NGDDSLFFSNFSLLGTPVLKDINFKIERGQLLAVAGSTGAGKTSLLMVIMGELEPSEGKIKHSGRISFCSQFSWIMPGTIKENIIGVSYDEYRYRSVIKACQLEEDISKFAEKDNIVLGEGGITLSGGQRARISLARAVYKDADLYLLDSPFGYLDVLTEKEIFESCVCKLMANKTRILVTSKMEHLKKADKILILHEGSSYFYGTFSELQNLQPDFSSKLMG
Experimental: FIGS. 15A-15D are images that confirm formation of a ternary complex between CFTR, an exemplary bifunctional compound (Compound 201), and OTUB1 in vitro using recombinant protein and native mass spectrometry (MS)-based approaches. FIGS. 15A-15C depict native mass spectra of CFTR-OTUB1 complex formation in the presence of DMSO (FIG. 15A), the DUB Recruiter Compound 100 alone (FIG. 15B), or the bifunctional compound Compound 201 (FIG. 15C).
Native mass spectrometry experiments were performed on a Thermo QE UHMR equipped with a nano-electrospray ionization source (Advion TriVersa NanoMate). Recombinant OTUB1 was first buffer exchanged into 150 mM ammonium acetate, 100 μM MgCl2, and 100 μM ATP at pH 6.7. 4 μM OTUB1 was then pre-incubated at room temperature for 24 hours with either DMSO, DUB Recruiter Compound 100 (100 μM), or DUBTAc Compound […] (100 μM). After 24 hours, 4 μM CFTR, in the same buffer, was added to the OTUB1 solution, for final concentrations of 2 μM of each protein with either DMSO or 50 μM compound. The solution was then allowed to incubate for 30 minutes prior to analysis on the mass spectrometer. Mass spectra were recorded in positive ion mode with a mass range of 1000-8000 m/z. Each spectrum was then deconvoluted and relevant peaks were integrated to determine % ternary complex formed. All experiments were performed in triplicate.

Structure (SMILES) | inhibition of IA-rhodamine binding of OTUB1 [1] | cysteine of OTUB1 targeted (covalent modification site) [2] | modification of the catalytic C91 of OTUB1 [2] | OTUB1 deubiquitination activity (monoubiquitin release from di-ubiquitin) [3] | CFTR-OTUB1 complex formation [4]
C=CC(=O)N1CCN(c2ccc(C)o2)C(=O)C1 [Compound 100] | dose-responsive inhibition | selectively targets C23 | no detectable modification | does not inhibit | not
C=CC(=O)N1CCN(c2ccc(CCC(=O)NCCCCCNC(=O)c3cccc(-c4nc(NC(=O)C5(c6ccc7c(c6)OC(F)(F)O7)CC5)ccc4C)c3)o2)C(=O)C1 [Compound 201, N-(5-(3-(5-(4-acryloyl-2-oxopiperazin-1-yl)furan-2-yl)propanamido)pentyl)-3-(6-(1-(2,2-difluorobenzo[d][1,3]dioxol-5-yl)cyclopropane-1-carboxamido)-3-methylpyridin-2-yl)benzamide] |  |  |  |  | significant CFTR-OTUB1 complex formation was observed

Source: patent US20240252655A1, “DEUBIQUITINASE-TARGETING CHIMERAS AND RELATED METHODS” (Novartis AG, priority 2021, published 2024)
